Results from patent publication US8242118B2, “Arylsulfonamide derivatives for use as CCR3 antagonists in the treatment of inflammatory and immunological disorders” (Axikin Pharmaceuticals Inc., priority 2001, dated 2012).

Biological target: T1, Human CCR3 (Homo sapiens, UniProt P51677)
T1 construct: The cloned CCR3 cDNA was constructed with pcDNA3 vector and transfected into a IC562 cell line; expressed in transfected cells
T1 sequence (P51677 1-355): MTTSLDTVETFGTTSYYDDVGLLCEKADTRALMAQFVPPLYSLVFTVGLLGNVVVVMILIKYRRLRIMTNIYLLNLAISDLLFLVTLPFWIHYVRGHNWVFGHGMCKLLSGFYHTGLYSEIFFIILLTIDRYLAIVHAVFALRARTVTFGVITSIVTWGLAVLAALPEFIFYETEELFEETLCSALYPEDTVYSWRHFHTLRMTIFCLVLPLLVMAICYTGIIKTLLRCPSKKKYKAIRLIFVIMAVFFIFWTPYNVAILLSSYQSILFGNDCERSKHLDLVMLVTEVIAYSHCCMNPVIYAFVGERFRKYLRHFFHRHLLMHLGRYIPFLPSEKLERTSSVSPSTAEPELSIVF
Assay: Calcium mobilization assay, eotaxin-stimulated
Type: cell-based
Details: human CCR3-transformed K562 cells, 10 nM eotaxin; compounds of about 40 to 90% purity; read-out: Activity grade Ca2+ (IC50 class)
Procedure, shortened: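 Eotaxin (10 nM final) triggered calcium flux, monitored 60 s with Fluo-3AM, in butyrate-pretreated (5 mM, 20–24 h) CCR3-transfected K562 cells. Compounds preincubated 10 min; percent inhibition per concentration yielded IC50.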

IC50 | SMILES
< 1000 nM | CCN1CCN(S(=O)(=O)c2cc(I)ccc2Oc2cc(C)cc(C)c2)CC1 [Example 5-5]
> 10000 nM | Cc1cc(C)cc(Oc2ccc(N)cc2S(=O)(=O)N2CCNCC2)c1.O=C(O)C(F)(F)F [Example 5-3]
< 1000 nM | N#Cc1ccc(Oc2cc(Cl)cc(Cl)c2)c(S(=O)(=O)N2C[C@@H]3CCCN[C@@H]3C2)c1 [Example 13-5]
1000 to 10000 nM | N#Cc1ccc(Oc2cc(Cl)cc(Cl)c2)c(S(=O)(=O)N2CCCC3CN(Cc4ccccc4)CC32)c1 (stereo not shown) [Example 13-2]
> 10000 nM | Cc1cc(C)cc(Oc2cc(C)c(N)cc2S(=O)(=O)N2CCNCC2)c1.Cl.Cl [Example 5-7]
> 10000 nM | Cc1cc(C)cc(Oc2ccc(NC(=O)CCc3ccccc3)cc2S(=O)(=O)N2CCNCC2)c1 [Example 7-8]
> 10000 nM | Cc1cc(C)cc(Oc2ccc(NC(=O)CC(C)C)cc2S(=O)(=O)N2CCNCC2)c1 [Example 7-4]
< 1000 nM | COCCCN1CCN(S(=O)(=O)c2cc(C#N)ccc2Oc2cc(Cl)cc(Cl)c2)CC1 [Example 13-7]
1000 to 10000 nM | Cc1cc(C)cc(Oc2ccc(NC(=O)c3cccc4ccccc34)cc2S(=O)(=O)N2CCNCC2)c1 [Example 7-7]
< 1000 nM | CCN1CCN(S(=O)(=O)c2cc(Cl)ccc2Oc2cc(C)cc(C)c2)CC1 [Example 5-4]
> 10000 nM | Cc1ccc(C(=O)Nc2ccc(Oc3cc(C)cc(C)c3)c(S(=O)(=O)N3CCNCC3)c2)cc1 [Example 7-6]
> 10000 nM | CC(=O)Nc1ccc(Oc2cc(C)cc(C)c2)c(S(=O)(=O)N2CCNCC2)c1 [Example 7-2]
< 1000 nM | N#Cc1ccc(Oc2cc(Cl)cc(Cl)c2)c(S(=O)(=O)N2C[C@H]3C[C@@H]2CN3)c1 [Example 13-4]
> 10000 nM | Cc1cc(C)cc(Oc2ccc(NC(=O)c3ccccc3)cc2S(=O)(=O)N2CCNCC2)c1 [Example 7-5]
< 1000 nM | Cc1cc(C)cc(Oc2ccc(F)cc2S(=O)(=O)N2CCNCC2)c1 [Example 6-3]
< 1000 nM | Cc1cc(C)cc(Oc2ccc(I)cc2S(=O)(=O)N2CCNCC2)c1.Cl [Example 5-6]
< 1000 nM | Cc1cc(C)cc(Oc2ccc(S(=O)(=O)N(C)C)cc2S(=O)(=O)N2CCNCC2)c1.Cl [Example 10-2]
> 10000 nM | Cc1cc(C)cc(Oc2ccc(NC(=O)c3cccs3)cc2S(=O)(=O)N2CCNCC2)c1 [Example 7-9]
> 10000 nM | Cc1cc(C)cc(Oc2ccc(NC(=O)C(C)(C)C)cc2S(=O)(=O)N2CCNCC2)c1 [Example 7-3]

More lines, now with the values behind:

SMILES | IC50
CCCC(C)N1CCN(S(=O)(=O)c2cc([N+](=O)[O-])ccc2Oc2cc(C)cc(C)c2)CC1 (stereo not shown) [Example 4-17] | < 1000 nM
O=[N+]([O-])c1ccc(Nc2ccccc2Cl)c(S(=O)(=O)N2CCNCC2)c1 [Example 3-6] | 1000 to 10000 nM
O=[N+]([O-])c1ccc(Oc2cc(Cl)cc(Cl)c2)c(S(=O)(=O)N2CCC[C@H]2CN2CCCC2)c1 [Example 4-22] | < 1000 nM
Cc1cc(C)cc(Oc2ccc([N+](=O)[O-])cc2S(=O)(=O)NCCN2CCOCC2)c1 [Example 4-3] | < 1000 nM
Cc1cc(C)cc(Oc2ccc([N+](=O)[O-])cc2S(=O)(=O)N2CCN(C(C)C)CC2)c1 [Example 4-15] | < 1000 nM
Cc1ccccc1Nc1ccc([N+](=O)[O-])cc1S(=O)(=O)N1CCNCC1 [Example 3-3] | 1000 to 10000 nM
CCN1CCC(N(CC)S(=O)(=O)c2cc([N+](=O)[O-])ccc2Oc2cc(C)cc(C)c2)C1 (stereo not shown) [Example 4-12] | < 1000 nM
Cc1cc(C)cc(Oc2ccc([N+](=O)[O-])cc2S(=O)(=O)N(C)CCN(C)C)c1 [Example 4-14] | < 1000 nM
COCCCN1CCN(S(=O)(=O)c2cc([N+](=O)[O-])ccc2Oc2cc(Cl)cc(Cl)c2)CC1 [Example 4-36] | < 1000 nM
Cc1cc(C)cc(Oc2ccc([N+](=O)[O-])cc2S(=O)(=O)N2CCC(N(C)C)CC2)c1.Cl [Example 4-24] | < 1000 nM
Cc1cc(C)cc(Oc2ccc([N+](=O)[O-])cc2S(=O)(=O)N2CCN(CC3CCCO3)CC2)c1 (stereo not shown) [Example 4-26] | < 1000 nM
CCC(C)N1CCN(S(=O)(=O)c2cc([N+](=O)[O-])ccc2Oc2cc(C)cc(C)c2)CC1 (stereo not shown) [Example 4-16] | < 1000 nM
O=[N+]([O-])c1ccc(Oc2cc(Cl)cc(Cl)c2)c(S(=O)(=O)N2CCC(N3CCCC3)C2)c1 (stereo not shown) [Example 4-38] | < 1000 nM
Cc1cc(C)cc(Oc2ccc([N+](=O)[O-])cc2S(=O)(=O)N2CCN(C)CC2)c1 [Example 4-4] | < 1000 nM
CCN(CC)C1CCN(S(=O)(=O)c2cc([N+](=O)[O-])ccc2Oc2cc(Cl)cc(Cl)c2)C1 (stereo not shown) [Example 4-21] | < 1000 nM
O=[N+]([O-])c1ccc(Nc2cc(Cl)cc(Cl)c2)c(S(=O)(=O)N2CCNCC2)c1 [Example 3-2] | < 1000 nM
N[C@H]1CCN(S(=O)(=O)c2cc([N+](=O)[O-])ccc2Sc2cc(Cl)cc(Cl)c2)C1 [Example 2-12] | < 1000 nM
Cc1cc(C)cc(Oc2ccc([N+](=O)[O-])cc2S(=O)(=O)N2CCN(C3CCCCC3)CC2)c1 [Example 4-6] | < 1000 nM
O=[N+]([O-])c1ccc(Oc2cc(Cl)cc(Cl)c2)c(S(=O)(=O)N2CCN(CCC(F)(F)F)CC2)c1 [Example 4-34] | < 1000 nM
Cl.N[C@@H]1CCN(S(=O)(=O)c2cc([N+](=O)[O-])ccc2Sc2cc(Cl)cc(Cl)c2)C1 [Example 2-11] | < 1000 nM

SMILES | IC50
CN(C)CCN(C)S(=O)(=O)c1cc([N+](=O)[O-])ccc1Sc1cc(Cl)cc(Cl)c1 [Example 2-23] | < 1000 nM
CN1CCC(N(C)S(=O)(=O)c2cc([N+](=O)[O-])ccc2Oc2cc(Cl)cc(Cl)c2)C1 (stereo not shown) [Example 4-23] | < 1000 nM
Cc1cc(C)cc(Oc2ccc([N+](=O)[O-])cc2S(=O)(=O)N2CC[C@@H](N(C)C)C2)c1 [Example 4-13] | < 1000 nM
Cc1cc(C)cc(Oc2ccc([N+](=O)[O-])cc2S(=O)(=O)N2CCN(C3CCCC3)CC2)c1 [Example 4-19] | < 1000 nM
O=[N+]([O-])c1ccc(Oc2cc(Cl)cc(Cl)c2)c(S(=O)(=O)N2CCN(CC3CCCO3)CC2)c1 (stereo not shown) [Example 4-27] | < 1000 nM
O=[N+]([O-])c1ccc(Sc2cc(Cl)cc(Cl)c2)c(S(=O)(=O)NCCN2CCCCC2)c1 [Example 2-24] | < 1000 nM
CN(C)CCN(C)S(=O)(=O)c1cc([N+](=O)[O-])ccc1Oc1cc(Cl)cc(Cl)c1 [Example 4-20] | < 1000 nM
CCC(CC)N1CCN(S(=O)(=O)c2cc([N+](=O)[O-])ccc2Oc2cc(C)cc(C)c2)CC1 [Example 4-18] | 1000 to 10000 nM
CCN1CCN(S(=O)(=O)c2cc([N+](=O)[O-])ccc2Oc2cc(C)cc(C)c2)CC1 [Example 4-5] | < 1000 nM
O=[N+]([O-])c1ccc(Oc2cc(Cl)cc(Cl)c2)c(S(=O)(=O)N2CCC(N3CCCCC3)CC2)c1 [Example 4-29] | < 1000 nM
Cc1cccc(Nc2ccc([N+](=O)[O-])cc2S(=O)(=O)N2CCNCC2)c1 [Example 3-4] | 1000 to 10000 nM
O=[N+]([O-])c1ccc(Sc2cc(Cl)cc(Cl)c2)c(S(=O)(=O)N2CCC(N3CCCC3)CC2)c1 [Example 2-22] | < 1000 nM
Cc1cc(C)cc(Oc2ccc([N+](=O)[O-])cc2S(=O)(=O)N2CCN(CCC(F)(F)F)CC2)c1 [Example 4-33] | < 1000 nM
Cc1cc(C)cc(Oc2ccc([N+](=O)[O-])cc2S(=O)(=O)N2CCN(c3ccccc3)CC2)c1 [Example 4-7] | > 10000 nM
Cc1ccc(Nc2ccc([N+](=O)[O-])cc2S(=O)(=O)N2CCNCC2)cc1 [Example 3-5] | 1000 to 10000 nM
Cc1ccc(N2CCN(S(=O)(=O)c3cc([N+](=O)[O-])ccc3Oc3cc(C)cc(C)c3)CC2)cc1 [Example 4-8] | > 10000 nM
Cc1cc(C)cc(Oc2ccc([N+](=O)[O-])cc2S(=O)(=O)NCCN2CCCCC2)c1 [Example 4-2] | < 1000 nM
O=[N+]([O-])c1ccc(Sc2cc(Cl)cc(Cl)c2)c(S(=O)(=O)N2CCC(N3CCCCC3)CC2)c1 [Example 2-3] | < 1000 nM
CC1CCCCN1CCCNS(=O)(=O)c1cc([N+](=O)[O-])ccc1Sc1cc(Cl)cc(Cl)c1 (stereo not shown) [Example 2-13] | < 1000 nM
